Patent publication US20220284983A1, “METHODS OF IDENTIFYING CIS-REGULATORY ELEMENTS AND USES THEREOF” (UNIVERSITY HEALTH NETWORK, priority 2019, published 2022)

Tested on: 16 breast cancer cell lines
Experiment: Drug response of 16 breast cancer cell lines (GRAY dataset, PharmacoGx) compared by presence or absence of CREAM-identified COREs
Format: cell-based
Settings: >1 = higher sensitivity when CORE present
Excerpt: For example, in methods involving assessing drug sensitivity, for each CORE, average drug sensitivity of the samples with that CORE can be divided to the average drug sensitivity of the samples without that CORE. Then the COREs can be sorted based on the obtained fold changes and COREs with top fold changes can be selected.
Therefore, in some embodiments, the top COREs can be determined as being the COREs with a minimum FDR (False Discovery Rate) after significance after multiple hypothesis correction with dindex>1 (where dindex is a measure of hazard). The FDR indicates the significance or effect of association between existence (in the case of binary features using COREs) or values of that feature and the output value (like drug sensitivity in case of biomarker discovery). The FDR is a corrected p-value for multiple hypothesis. Then the COREs that exist in less than N samples may be further filtered. The value of N may be 2 or more and depends on the particular COREs and the prognosis being predicted. For some studies described herein N was chosen to be 5. As an optional step, the remaining COREs may be combined to result in the CORE signatures that may be used for a multivariate model. In some embodiments, Fold Change may be used instead of FDR in which case for each CORE, the average drug sensitivity of the samples with that CORE can be divided by the average drug sensitivity of the samples without that CORE. Then the COREs can be sorted based on the obtained fold changes and the COREs with the top fold changes can be selected.
CREAM was tested for biomarker discovery, for drug response, using 16 breast cancer cell lines (AU565, BT549, HCC1143, HCC1395, HCC1419, HCC1806, HCC1937, HCC3153, HCC38, HCC70, MDAMB157, MDAMB361, MDAMB453, MX1, T47D, ZR751) with available ATAC-seq profiles and response to PD98059 (a non-ATP competitive MEK inhibitor), and Floxuridine (an antimetabolite agent), as part of the data available in PharmacoGx R package (version 2.0.5) developed by Haibe-Kains laboratory. There are currently no known biomarker for response to PD98059 and Floxuridine.
The columns in each Table are: 1) chromosome regions of the COREs; 2) pvalue; 3) Fold change.
Fold change tells you if presence of a CORE results in higher or lower sensitivity. If Fold Change is great than 1, it means that presence of a CORE results in higher sensitivity and Fold Change is less than 1, it means that presence of a CORE results in lower sensitivity.

For O=c1[nH]c(=O)n([C@H]2C[C@H](O)[C@@H](CO)O2)cc1F [Floxuridine], the Fold change (Floxuridine sensitivity with vs without CORE chr2-36473442-37039510) was 0.6674, the Fold change (Floxuridine sensitivity with vs without CORE chr3-69004922-69292456) was 0.6617 and the Fold change (Floxuridine sensitivity with vs without CORE chr4-99547495-99584170) was 0.5406. For the same molecule, the Fold change (Floxuridine sensitivity with vs without CORE chr5-167696005-167914094) was 0.629, the Fold change (Floxuridine sensitivity with vs without CORE chr6-16577121-16782003) was 0.5777 and the Fold change (Floxuridine sensitivity with vs without CORE chr15-60619092-60725509) was 0.7009. The Fold change (Floxuridine sensitivity with vs without CORE chr16-29801700-30154789) was 1.653, the Fold change (Floxuridine sensitivity with vs without CORE chr16-67184267-67407032) was 2.017 and the Fold change (Floxuridine sensitivity with vs without CORE chr17-21102597-21252333) was 0.699.

COc1cccc(-c2cc(=O)c3ccccc3o2)c1N [PD98059] gave a Fold change (PD98059 sensitivity with vs without CORE chr2-75602732-75966190) of 0.5231, a Fold change (PD98059 sensitivity with vs without CORE chr6-126063660-126362254) of 0.4327 and a Fold change (PD98059 sensitivity with vs without CORE chr7-54328557-56189467) of 0.5362. The Fold change (PD98059 sensitivity with vs without CORE chr9-75681937-75835570) was 0.538, the Fold change (PD98059 sensitivity with vs without CORE chr9-103348375-103365047) was 0.4902 and the Fold change (PD98059 sensitivity with vs without CORE chr9-130150616-131799038) was 1.906. The Fold change (PD98059 sensitivity with vs without CORE chr9-139257512-140211180) was 1.864, the Fold change (PD98059 sensitivity with vs without CORE chr11-694436-876984) was 2.17 and the Fold change (PD98059 sensitivity with vs without CORE chr11-34183346-34607941) was 1.859. It also gave a Fold change (PD98059 sensitivity with vs without CORE chr15-40330702-40453457) of 2.206, a Fold change (PD98059 sensitivity with vs without CORE chr16-4965308-5008584) of 1.983 and a Fold change (PD98059 sensitivity with vs without CORE chr16-53766187-53861966) of 0.4902. For the same molecule, the Fold change (PD98059 sensitivity with vs without CORE chr17-21102597-21252333) was 0.5247, the Fold change (PD98059 sensitivity with vs without CORE chr19-45765981-46636866) was 1.904 and the Fold change (PD98059 sensitivity with vs without CORE chr20-9819285-10752699) was 0.5253.
